Source: publication PMC10064984, “Anti-cyclooxygenase, anti-glycation, and anti-skin aging effect of Dendrobium officinale flowers’ aqueous extract and its phytochemical validation in aging” (Frontiers in Immunology, 2023)
Values joined by “and” are separate entries in the source; they are usually repeats but may differ in a detail not shown here. Equal values may be shown once. Read-outs that look alike come from different tables or passages of the source.

Columns and labels:
Assay type in all cases: biochemical
[1] = ABTS·+ decolourisation capacity; conditions: for ABTS scavenging rate: 0.5mM series, replicate wells, listed as T19; for IC50: mean ± SD, n = 3
Method: Fast colourimetric methods were slightly modified for the in vitro assessment of DPPH· scavenging ([19]), ABTS·+ decolourisation capacity ([20]), and total antioxidant capacity of FRAP ([21]). The stock solutions of derivatisation reagents were diluted as follows before measurement: DPPH was diluted with absolute ethanol until the absorbance was 0.8 ± 0.05 at λ = 517 nm. ABTS working solution was prepared with phosphate buffer (0.2 M, pH 7.4) to display absorbance of 0.8 ± 0.05 at λ = 729 nm, based on a previous study ([22]). The FRAP solution was prepared according to the instructions of the FRAP kit. Absorbances were measured using an automatic microplate reader (Molecular Group Ltd., USA), and all analyses were performed using 96-well plates. All measurements were performed in triplicate, and Trolox was used as a positive control.
For ABTS·+ decolourisation capacity, 100 μl of ABTS working solution was mixed with 200 μl of sample solution, and the absorbance was recorded after 10 min at 729 nm. Phosphate buffer (0.2 M, pH 7.4) was used as a negative control.
DPPH· and ABTS·+ radical scavenging activities of the tested sample were both calculated using the following formula:
% inhibition = (A control − A sample)/A control × 100
Where A control and A sample represent the absorbance of the control and test samples, respectively. The IC50 was calculated graphically from the dose-inhibition curves.

COX-2 = target: T1, COX-2 (Homo sapiens, UniProt P35354); assay: Anti-COX-2 assay (COX-2 Inhibitor Screening Kit)
T1 construct: purchased Beyotime S0168
T1 sequence (P35354 18-604): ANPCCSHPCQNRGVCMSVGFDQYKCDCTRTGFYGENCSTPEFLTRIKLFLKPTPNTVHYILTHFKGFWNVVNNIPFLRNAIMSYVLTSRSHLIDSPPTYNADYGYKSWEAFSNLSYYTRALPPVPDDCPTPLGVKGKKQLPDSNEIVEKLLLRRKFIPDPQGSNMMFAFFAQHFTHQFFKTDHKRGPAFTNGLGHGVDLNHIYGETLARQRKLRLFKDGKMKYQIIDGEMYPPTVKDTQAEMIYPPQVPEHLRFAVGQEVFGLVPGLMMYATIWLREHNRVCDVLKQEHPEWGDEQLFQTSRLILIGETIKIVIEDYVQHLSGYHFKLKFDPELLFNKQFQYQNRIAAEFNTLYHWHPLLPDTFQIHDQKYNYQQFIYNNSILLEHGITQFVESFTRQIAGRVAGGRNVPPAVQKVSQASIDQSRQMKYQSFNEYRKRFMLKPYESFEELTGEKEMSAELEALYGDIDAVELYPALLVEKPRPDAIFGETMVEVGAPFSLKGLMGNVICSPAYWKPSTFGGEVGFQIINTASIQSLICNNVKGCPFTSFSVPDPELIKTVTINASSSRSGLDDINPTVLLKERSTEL

DPPH· scavenging = conditions: mean ± SD, n = 3
[2] = FRAP total antioxidant capacity; conditions: lower part of sheet (compound series);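 note: colourimetric FRAP kit assay read as absorbance in 96-well plates, values as mM FeSO4 via standard curve, EC1 being sample concentration matching 1.0 mmol/L FeSO4, Trolox positive control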
[3] = Fluorescent AGEs formation in a BSA-fructose/glucose system; conditions: mean ± SD, n = 3; read-out: BSA-glycation IC50
Method: Glycated protein was prepared in vitro by incubating BSA in the presence of D-glucose (GLC) and D-fructose (FRC). The DOF extract and specific standards were dissolved in DMSO:water (1:4). […] The assay was performed in triplicate, and AG was used as a positive control. The percentage inhibition of fluorescent AGE formation was calculated using the following equation: […] Where IF sample is fluorescence intensity in the presence of samples and BSA, IF sample control is fluorescence intensity in the presence of samples without BSA, IF control is fluorescence intensity without samples, and IF blank control is fluorescence intensity without samples and BSA.

O=c1cc(-c2ccc(O)c(O)c2)oc2c(C3OCC(O)C(O)C3O)c(O)c(C3OC(CO)C(O)C(O)C3O)c(O)c12 [compound 15, Luteolin-6-C-β-D-glucoside-8-C-β-D-xyloside]
ABTS scavenging rate ([1]; concentration 7.8125 (unit not given)): 33.84% and 32.82% and 31.57% | ABTS scavenging rate ([1]; concentration 15.625 (unit not given)): 51.02% and 51.43% and 45.77% | ABTS scavenging rate ([1]; concentration 31.25 (unit not given)): 80.79% and 81.13% and 77.35% | ABTS scavenging rate ([1]; concentration 62.5 (unit not given)): 99.45% and 99.39% and 98.61% | ABTS scavenging rate ([1]; concentration 125 (unit not given)): 99.58% and 99.48% and 99.50% | ABTS scavenging rate ([1]; concentration 250 (unit not given)): 99.61% and 99.60% and 99.48% | ABTS scavenging rate ([1]; concentration 500 (unit not given)): 99.69% (2×) and 99.56% | IC50 [1]: 13.8 ± 0.82 µM | COX-2 inhibition (in words) (COX-2): great COX-2 inhibition | inhibition at 3.125 µM (COX-2; 3.125 μM, single replicates): 14.6% | COX-2 inhibition (COX-2; 3.125 μM, single replicates, listed as T19, 3.125 µM): 14.16% and 11.51% | inhibition at 6.25 µM (COX-2; 6.25 μM, single replicates): 39.3% | COX-2 inhibition (COX-2; 6.25 μM, single replicates, listed as T19, 6.25 µM): 23.77% and 25.81% | inhibition at 12.5 µM (COX-2; 12.5 μM, single replicates): 60.5% | COX-2 inhibition (COX-2; 12.5 μM, single replicates, listed as T19, 12.5 µM): 53.05% and 54.30% | inhibition at 25 µM (COX-2; 25 μM, single replicates): 71.9% | COX-2 inhibition (COX-2; 25 μM, single replicates, listed as T19, 25 µM): 68.96% and 71.63% | inhibition at 50 µM (COX-2; 50 μM, single replicates): 75.8% | COX-2 inhibition (COX-2; 50 μM, single replicates, listed as T19, 50 µM): 74.58% and 74.45% | inhibition at 100 µM (COX-2; 100 μM, single replicates): 83.1% | COX-2 inhibition (COX-2; 100 μM, single replicates, listed as T19, 100 µM): 75.76% and 77.02% | inhibition at 200 µM (COX-2; 200 μM, single replicates): 80.8% | COX-2 inhibition (COX-2; 200 μM, single replicates, listed as T19, 200 µM): 78.95% and 81.08% | IC50 (COX-2; mean ± SD, n = 3, nd, not detected, read-out: COX-2 IC50): 13.9 ± 2.4 µM | IC50 (COX-2; supplement sheet COX, read-out: COX-2 IC50, single replicate): 11.2 µM and 15.8 µM and 14.8 µM | IC50 (DPPH· scavenging): 145 ± 51.4 µM | FRAP EC1 [2]: 1100.3 ± 138.4 µM | IC50 [3]: 294 ± 13.3 µM

O=c1cc(-c2ccc(O)cc2)oc2c(C3OCC(O)C(O)C3O)c(O)c(C3OC(CO)C(O)C(O)C3O)c(O)c12 (stereo not shown) [compound 17, Schaftoside]
IC50 [1]: 75.6 ± 12.1 µM | COX-2 inhibition (in words) (COX-2): no inhibitory effects | COX-2 inhibition (COX-2; 31.25 μM, single replicates, listed as T4, 31.25 µM): -26.58% and -23.72% and 26.46% | COX-2 inhibition (COX-2; 62.5 μM, single replicates, listed as T4, 62.5 µM): -5.78% and -8.50% and -9.30% | COX-2 inhibition (COX-2; 125 μM, single replicates, listed as T4, 125 µM): -21.60% and 2.72% | COX-2 inhibition (COX-2; 250 μM, single replicates, listed as T4, 250 µM): -34.33% and -33.14% and 20.94% | COX-2 inhibition (COX-2; 500 μM, single replicates, listed as T4, 500 µM): -36.70% and -25.03% and -14.74% | COX-2 inhibition (COX-2; 1000 μM, single replicates, listed as T4, 1000 µM): -40.79% and -25.81% and -34.65% | COX-2 inhibition (COX-2; 2000 μM (2mM), single replicates, listed as T4): -30.80% and -21.24% and -15.63% | IC50 (DPPH· scavenging): > 5000 µM | FRAP EC1 [2]: >5000 µM | IC50 [3]: 250 ± 4.16 µM
